Experimental data taken from publication PMC8179002, “Inhibitors of thiol-mediated uptake” (Chemical Science, 2020).
Converted amounts (≈) assume the structure as drawn. Like-named read-outs stand apart in the source and are kept apart here. Bridge positions count the residues as written; N and C are the ends. Peptide text beside a SMILES is read from it.

How the values were obtained:
[1] = test system: A549 human lung alveolar basal epithelium cells overexpressing ACE2 and TMPRSS2; conditions: Fig. S44
[2] = test system: cellular uptake of 1 in HeLa Kyoto cells; assay: cells; format: cell-based; conditions: for IC50: read-out: IC50, inhibition of cellular uptake of 1; for minimal effective concentration: read-out: MIC, inhibition of cellular uptake of 1; for MIC (concentration that causes ∼15% reduction of reporter uptake), against reporter 1: pre-incubation time not given (Fig. 2: 1 h pre-incubation, 30 min with reporter; some 15 min)
Summary of the method: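 HeLa Kyoto cells were pre-incubated with inhibitors at varying concentrations and times, washed, then given reporter 1 at 10 μM final for 30 min at 37°C; alternatively, inhibitors were kept during reporter exposure. Hoechst/PI staining and 10x high-content imaging gave mean intracellular fluorescence per cell and viability from PI-negative nuclei.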

[3] = test system: cellular uptake of 2 in HeLa Kyoto cells; assay: cells; format: cell-based
[4] = trans to cis isomer 22; Fig. S46
[5] = HeLa Kyoto, 0.5 h, HeLa, tpre 0.5 h, then tco 0.5 h co-incubation of inhibitor and 1 (10 µM)
[6] = HeLa Kyoto, 0.5 h, HeLa, tpre 0.5 h with inhibitor, removal, tinc 0.5 h with 1 (10 µM)
[7] = HeLa Kyoto, 0.5 h, HeLa, tpre 5.5 h with FBS, then tco 0.5 h co-incubation of inhibitor and 1 (10 µM)
[8] = HeLa Kyoto, 0.5 h, HeLa, tpre 23.5 h with FBS, then tco 0.5 h co-incubation of inhibitor and 1 (10 µM)
[9] = HeLa Kyoto, 1 h, HeLa, tpre 1 h with inhibitor, removal, tinc 0.5 h with 1 (10 µM)
[10] = HeLa Kyoto, 2 h, HeLa, tpre 2 h with inhibitor, removal, tinc 0.5 h with 1 (10 µM)
[11] = HeLa Kyoto, 4 h, HeLa, tpre 4 h with inhibitor, removal, tinc 0.5 h with 1 (10 µM)
[12] = HeLa Kyoto, HeLa, tpre 1 h with inhibitor, removal, tinc 0.5 h with 1 (10 µM)
[13] = HeLa Kyoto, HeLa, tpre 5.5 h with FBS, then tco 0.5 h co-incubation of inhibitor and 1 (10 µM)
[14] = HeLa Kyoto, HeLa, tpre 23.5 h with FBS, then tco 0.5 h co-incubation of inhibitor and 1 (10 µM)
[15] = HeLa, tpre 0.5 h, then tco 0.5 h co-incubation of inhibitor and 2 (10 µM)
[16] = HeLa, tpre 1 h with inhibitor, removal, tinc 0.5 h with 2 (10 µM)
[17] = HeLa, tpre 4 h with inhibitor, removal, tinc 0.5 h with 2 (10 µM)
[18] = HeLa, tpre 1 h with inhibitor, removal, tinc 0.5 h with 1 (10 µM)
[19] = HeLa, tpre 2 h with inhibitor, removal, tinc 0.5 h with 1 (10 µM)
[20] = HeLa, tpre 0.5 h with inhibitor, removal, tinc 0.5 h with 1 (10 µM)
[21] = HeLa, tpre 0.5 h, then tco 0.5 h co-incubation of inhibitor and 2 (10 µM), read-out: IC50, inhibition of cellular uptake of 2
[22] = HeLa, tpre 1 h with inhibitor, removal, tinc 0.5 h with 2 (10 µM), read-out: IC50, inhibition of cellular uptake of 2
[23] = HeLa, tpre 1.5 h, then tco 0.5 h co-incubation of inhibitor and 2 (10 µM)
[24] = HeLa, tpre 1.5 h, then tco 0.5 h co-incubation of inhibitor and 2 (10 µM), read-out: IC50, inhibition of cellular uptake of 2
[25] = HeLa, tpre 2 h with inhibitor, removal, tinc 0.5 h with 2 (10 µM)
[26] = HeLa, tpre 2 h with inhibitor, removal, tinc 0.5 h with 2 (10 µM), read-out: IC50, inhibition of cellular uptake of 2
[27] = HeLa, tpre 4 h with inhibitor, removal, tinc 0.5 h with 2 (10 µM), read-out: IC50, inhibition of cellular uptake of 2

Row | SMILES | Concentration at which toxicity was detected [1] | IC50 [2, 5] | minimal effective concentration [2, 5] | minimal effective concentration [2, 7] | minimal effective concentration [2, 8] | minimal effective concentration [2, 9] | minimal effective concentration [2, 10] | minimal effective concentration [2, 11] | IC50 [2, 12] | IC50 [2, 13] | IC50 [2, 14] | MIC (concentration that causes ∼15% reduction of reporter uptake), against reporter 1 ([2]; HeLa) | MIC, inhibition of cellular uptake of 2 [3, 15] | MIC, inhibition of cellular uptake of 2 [3, 16] | MIC, inhibition of cellular uptake of 2 [3, 17] | IC50 [2, 18] | IC50 [2, 19] | minimal effective concentration ([2]; 2 h) | IC50 [2, 20] | IC50 [3, 21] | further results
1 | CCN1C(=O)C2SSSSC1C(=O)N2CC(=O)O (stereo not drawn) [compound 3] | 50 µM | 2.7 ± 0.1 µM | < 0.5 µM | < 0.5 µM | 30 µM | < 0.1 µM | < 0.1 µM | < 0.1 µM | 1.3 ± 0.2 µM | 9.6 ± 1.2 µM | > 50 µM | < 0.1 µM | 17 µM | > 20 µM | – | – | – | – | – | – | IC50 [2, 6]: 1.7 ± 0.2 µM; minimal effective concentration [2, 6]: < 0.1 µM; IC50 ([2]; HeLa Kyoto, HeLa, tpre 2 h with inhibitor, removal, tinc 0.5 h with 1 (10 µM)): 2.7 ± 0.6 µM; IC50 ([2]; HeLa Kyoto, HeLa, tpre 4 h with inhibitor, removal, tinc 0.5 h with 1 (10 µM)): 8.2 ± 3.2 µM; IC50 ([3]; HeLa Kyoto, 0.5 h, HeLa, tpre 0.5 h, then tco 0.5 h co-incubation of inhibitor and 2 (10 µM), read-out: IC50, inhibition of cellular uptake of 2): > 20 µM; IC50 ([3]; HeLa Kyoto, HeLa, tpre 1 h with inhibitor, removal, tinc 0.5 h with 2 (10 µM), read-out: IC50, inhibition of cellular uptake of 2): > 20 µM; IC50 ([3]; HeLa Kyoto, HeLa, tpre 6 h with FBS, removal, tinc 0.5 h with 2 (10 µM), read-out: IC50, inhibition of cellular uptake of 2): > 100 µM; MIC, inhibition of cellular uptake of 2 ([3]; HeLa, tpre 6 h with FBS, removal, tinc 0.5 h with 2 (10 µM)): 40 µM
2 | O=S1(=O)C[C@H](O)[C@H](O)CS1 [compound 16] | 500 µM | – | – | 10 µM | 150 µM | 200 µM | – | – | > 1000 µM | 150 ± 30 µM | 860 ± 60 µM | – | – | – | 20 µM | – | – | – | – | – | IC50 ([3]; HeLa Kyoto, read-out: IC50, inhibition of cellular uptake of 2, HeLa, tpre 4 h with inhibitor, removal, tinc 0.5 h with 2 (10 µM)): 183 ± 18 µM; MIC against reporter 2 ([3]; HeLa, longer pre-incubation (Fig. 2: 4 h pre-incubation)): ~20 µM (≈ 3.68 µg/mL)
3 | [O-][S+]1CC(O)C(O)CS1 (stereo not drawn) [compound 17] | – | > 500 µM | 100 µM | 250 µM | 150 µM | – | 300 µM | 250 µM | – | > 1000 µM | > 500 µM | – | – | – | – | > 500 µM | > 500 µM | – | – | – | Isomerization [4]: isomerized with time; minimal effective concentration [2, 18]: 250 µM; IC50 ([2]; HeLa, tpre 4 h with inhibitor, removal, tinc 0.5 h with 1 (10 µM)): > 500 µM
4 | N[C@H]1CSSC[C@@H](C(=O)NCC(=O)O)NC(=O)[C@H](CCC(=O)O)NC1=O [compound 18] (H-CECG-OH; disulfide 1-3) | – | – | – | – | – | – | – | – | – | – | – | ≈ 300 μM | 4 µM | 300 µM | 100 µM | > 2000 µM | > 2000 µM | 200 µM | > 2000 µM | 44 ± 5 µM | IC50 ([2]; HeLa, tpre 0.5 h, then tco 0.5 h co-incubation of inhibitor and 1 (10 µM)): > 500 µM; IC50 ([2]; HeLa, tpre 5.5 h with FBS, then tco 0.5 h co-incubation of inhibitor and 1 (10 µM)): 1000 ± 110 µM; IC50 ([2]; HeLa, tpre 23.5 h with FBS, then tco 0.5 h co-incubation of inhibitor and 1 (10 µM)): 1000 ± 40 µM; IC50 [3, 22]: > 1000 µM; MIC, inhibition of cellular uptake of 2 [3, 23]: 4 µM; IC50 [3, 24]: 41 ± 4 µM; MIC, inhibition of cellular uptake of 2 [3, 25]: 200 µM; IC50 [3, 26]: > 1000 µM; IC50 [3, 27]: 859 ± 140 µM; MIC against reporter 2 ([3]; HeLa, upon co-incubation): ≈ 5 μM
5 | N[C@H]1CSSC[C@@H](C(=O)N[C@@H](CCC(=O)O)C(=O)O)NC(=O)CNC1=O [compound 19] (H-CGCE-OH; disulfide 1-3) | – | – | – | – | – | – | – | – | – | – | – | ≈ 300 μM | 5 µM | > 1000 µM | 900 µM | > 2000 µM | > 2000 µM | 400 µM | > 2000 µM | 46 ± 5 µM | minimal effective concentration ([2]; 1 h): 400 µM; IC50 [3, 22]: > 1000 µM; MIC, inhibition of cellular uptake of 2 [3, 23]: 7 µM; IC50 [3, 24]: 58 ± 10 µM; MIC, inhibition of cellular uptake of 2 [3, 25]: > 1000 µM; IC50 [3, 26]: > 1000 µM; IC50 [3, 27]: > 1000 µM; MIC against reporter 2 ([3]; HeLa, upon co-incubation): ≈ 5 μM
